In patent US10918610B2, “Compounds and methods of promoting myelination” (Case Western Reserve University, priority 2017, dated 2021):

What was measured:
human EBP = molecular target: T1, human EBP (Homo sapiens, UniProt Q15125); assay: Zymostenol level in human cortical spheroids (on-target EBP inhibition); assay type: cell-based; conditions: 100 nM, versus DMSO
T1 construct: endogenous in cells; host or cells: human cortical spheroids derived from pluripotent stem cells

[1] = test system: newly myelinated fibers within the spinal cord; assay: LPC-induced focal demyelination in the dorsal column of the spinal cord; assay type: in vivo, C57BL/6 female mice; conditions: 25 mg/kg intraperitoneally daily, days 4 to 13 post laminectomy, versus vehicle
Experimental: Focal demyelination in the dorsal column of the spinal cord was induced by the injection of 1% LPC solution. 12 week old C57BL/6 female mice were anesthetized using isoflurane and T10 laminectomies were performed. 1 μl of 1% LPC was infused into the dorsal column at a rate of 15 al/hour. At day 4, animals were randomized into treatment groups prior to treatment (2 animals were excluded due to surgical complications). […] Drugs were dissolved in DMSO and ethanol or corn oil and then diluted with sterile saline for injections. This experiment was done in a blinded manner: compounds were coded to ensure the researchers performing the experiments were unaware of the treatment being administered to each animal. […] Mice were anesthetized using ketamine/xylazine rodent cocktail and then euthanized by transcardial perfusion with 4% PFA, 2% glutaraldehyde, and 0.1 M sodium cacodylate. […] The number of myelinated axons per unit areas was counted from sections in the middle of each lesion and then averaged over each treatment group. […]
Focal demyelination in the dorsal column of the spinal cord was induced by the injection of 1% LPC solution. […] The number of myelinated axons per unit area was counted from sections obtained from the middle of each lesion and then averaged over each treatment group. All sections within the lesion area were scored. […]

EpiSC-derived OPCs = assay: Formation of differentiated MBP+ oligodendrocytes from OPCs in vitro (high-content imaging); assay type: cell-based, mouse
Description: EpiSC-derived OPCs were obtained using in vitro differentiation protocols and culture conditions described previously. To ensure uniformity throughout all in vitro screening experiments, EpiSC-derived OPCs were sorted to purity by fluorescence activated cell sorting at passage five with conjugated CD 140a-APC (eBioscience, 17-1401; 1:80) and NG2-AF488 (Millipore, AB5320A4; 1:100) antibodies. Sorted batches of OPCs were expanded and frozen down in aliquots. OPCs were thawed into growth conditions for one passage before use in further assays. Cultures were regularly tested and shown to be mycoplasma free.
EpiSC-derived OPCs were grown and expanded in poly-ornithine (PO) and laminin-coated flasks with growth medium (DMEM/F12 supplemented with N2-MAX (R&D Systems), B-27 (ThermoFisher), GlutaMax (Gibco), FGF2 ([…], R&D systems, 233-FB-025) and PDGF-AA ([…], R&D systems, 233-AA-050) before harvesting for plating. The cells were seeded onto poly-D-lysine 96-well CellCarrier plates (PerkinElmer) coated with laminin (Sigma, L2020; 15 μg/ml) using multi-channel pipet. For the experiment, 800,000 cells/mL stock in differentiation medium (DMEM/F12 supplemented with N2-MAX and B-27) was prepared and stored on ice for 2 h. […]
Plates were imaged on the Operetta High Content Imaging and Analysis system (PerkinElmer) and a set of 6 fields captured from each well resulting in an average of 1200 cells being scored per well. […] Each traced nucleus region was then expanded by 50% and cross-referenced with the […] (MBP) stain to identify oligodendrocyte nuclei, and from this the percentage of oligodendrocytes was calculated. In some experiments, the total process length of MBP+ oligodendrocytes was calculated as previously described.
OPCs were generated from the EpiSC5 cell line. […] To ensure uniformity throughout all in vitro screening experiments, EpiSC-derived OPCs were sorted to purity by fluorescence activated cell sorting at passage five with conjugated CD 140a-APC (eBioscience, 17-1401; 1:80) and NG2-AF488 (Millipore, AB5320A4; 1:100) antibodies. […]

T1 sequence (Q15125 whole entry): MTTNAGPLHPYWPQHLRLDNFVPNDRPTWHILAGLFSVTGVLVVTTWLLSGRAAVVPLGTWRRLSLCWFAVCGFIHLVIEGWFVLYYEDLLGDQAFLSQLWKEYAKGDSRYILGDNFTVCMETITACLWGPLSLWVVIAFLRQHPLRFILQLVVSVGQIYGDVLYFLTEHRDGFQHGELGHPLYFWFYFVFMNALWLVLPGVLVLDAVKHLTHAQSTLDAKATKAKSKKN

In the case of `CCN(C/C=C\c1ccc(C2CCCCC2)c(Cl)c1)C1CCCCC1` [Cis-N-cyclohexyl-N-ethyl-3-(3-chloro-4-cyclohexylphenyl)prop-2-enylamine], the “zymostenol in human cortical spheroid cells (FIG. 6)” value (human EBP) is reported as “accumulation of EBP substrate zymostenol”, the “myelin formation in the demyelinated lesion, electron microscopy (FIG. 7C)” value [1] is reported as “new myelin formation” and the “number of toluidine Blue-stained newly myelinated fibers within the spinal cord (FIG. 7F)” value [1] is reported as “significantly increased”. For the same molecule, the “number of differentiated MBP+ oligodendrocytes from OPCs compared with ketoconazole” value (EpiSC-derived OPCs; 63 nM, 125 nM, 250 nM and 500 nM versus ketoconazole 2.5 μM) was “at higher rates than ketoconazole”, the “formation of MBP+ oligodendrocytes in culture (FIG. 1A)” value (EpiSC-derived OPCs; 0.03, 0.1, 0.3 and 1 um, 40,000 cells per well, 3 days) was “enhances formation of MBP+ oligodendrocytes” and the “formation of MBP+ oligodendrocytes in in vitro cultures of OPCs (FIG. 4)” value (EpiSC-derived OPCs; wider range of concentrations (2 nM to 500 nM), 50,000 cells per well, N2B27 media, no growth factors) was “enhances formation of MBP+ oligodendrocytes”.
